Legend:
[1] = target: T1, mTOR kinase (Homo sapiens, UniProt P42345); assay: mTOR kinase TR-FRET assay; format: biochemical; conditions: read-out: mTO R
T1 construct: purchased Millipore, USA
Method: Compound inhibition for mTOR kinase was determined in a homogeneous TR-FRET assay using the Lance® ULight-p70 S6K (Thr 389) peptide (obtained from Perkin-Elmer). The ULight™-labeled synthetic peptide contains the amino acid residues surrounding Thr389 of human p70 S6K. The ULight-p70 S6K peptide is phosphorylated at Thr389 by mTOR. Phosphorylation motif: LGFTYVAP as substrate.
The compound dilution was carried out in 100% DMSO followed by a buffer dilution. The reaction buffer was HEPES (50 mM pH 7.5), EGTA (1 mM), MnCl2 (3 mM). Test compounds at various concentrations were pre-incubated with mTOR (Millipore, USA; 5 ng) for 60 min, and then the Lance® ULight-p70 S6K (Thr 389) peptide (50 nM) was added along with ATP (20 μM). After incubating the reaction mixture for 60 min at room temperature, the kinase reaction was terminated by the addition of EDTA (10 mM) followed by the addition of detection mix, i.e., 1 nM Eu-labeled anti-phospho-substrate antibody (Perkin Elmer, USA). The fluorescence emission at […] was measured upon excitation at 340 nm. IC50 values were subsequently determined using a sigmoidal dose-response curve (variable slope) in GraphPad Prism® 5 software.
Compounds of formula (I) caused inhibition of mTOR kinase activity as determined by this assay.

[2] = target: T2, PI3Kα (wild-type), P110/P85α (Homo sapiens, UniProt P42336); assay: PI3 Kinase TR-FRET assay, PI3Kα (wild-type); format: biochemical
T2 construct: made in house; host or cells: SF9 insect cells
Method: The ability of compounds of the invention to inhibit PI3K activity was determined in a homogeneous TR-FRET assay using a PI3K assay kit (Millipore, USA; cat #33-016) according to manufacturer's instructions. PI3-Kinases (isoforms α, β, γ and δ) catalyze the phosphorylation of phosphatidylinositol, PIP2 to PIP3 in the presence of ATP and Mg^2+. The PIP3 product is detected by displacement of biotin-PIP3 from an energy transfer complex consisting of Europium labeled anti-GST monoclonal antibody, a GST-tagged PH domain, biotinylated PIP3 and Streptavidin-APC. Excitation of Europium in the complex results in an energy transfer to the APC and a fluorescence emission at 665 nm. The PIP3 product displaces biotin-PIP3 from the complex resulting in a loss of energy transfer and thus a decrease in signal.
To test for the ability of compounds to inhibit the activity of PI3Kα (wild-type), exemplary compounds of formula (I) were dissolved in DMSO and directly distributed into 384-well plates at a volume of 0.5 μL. 14.5 μL of P110/P85α/PIP2 mixture in buffer (obtained from the Millipore kit) containing MgCl2 (40 mM) and DTT (5 mM) was added to compound wells and incubated for 60 min at room temperature. P110/P85α was expressed in SF9 insect cells and purified nickel column extraction. Five ng of wild-type P110/P85α was used in the assay. The kinase reaction was started by the addition of ATP. The assay concentrations of both PIP2 and ATP were 10 μM. The reaction mixture was incubated for 30 min at room temperature and was terminated by the addition of stop mix and detection mix. Fluorescence was measured at 615 and 665 nm upon excitation at 340 nm in a Victor™ V5 fluorometer (Perkin Elmer, USA). The fluorescence emission ratio at 665 to 615 nm, proportional to the kinase activity, was plotted against the compound concentration to generate dose-response curves and IC50 values were determined using GraphPad Prism® 5 software.

T2 sequence (P42336 whole entry): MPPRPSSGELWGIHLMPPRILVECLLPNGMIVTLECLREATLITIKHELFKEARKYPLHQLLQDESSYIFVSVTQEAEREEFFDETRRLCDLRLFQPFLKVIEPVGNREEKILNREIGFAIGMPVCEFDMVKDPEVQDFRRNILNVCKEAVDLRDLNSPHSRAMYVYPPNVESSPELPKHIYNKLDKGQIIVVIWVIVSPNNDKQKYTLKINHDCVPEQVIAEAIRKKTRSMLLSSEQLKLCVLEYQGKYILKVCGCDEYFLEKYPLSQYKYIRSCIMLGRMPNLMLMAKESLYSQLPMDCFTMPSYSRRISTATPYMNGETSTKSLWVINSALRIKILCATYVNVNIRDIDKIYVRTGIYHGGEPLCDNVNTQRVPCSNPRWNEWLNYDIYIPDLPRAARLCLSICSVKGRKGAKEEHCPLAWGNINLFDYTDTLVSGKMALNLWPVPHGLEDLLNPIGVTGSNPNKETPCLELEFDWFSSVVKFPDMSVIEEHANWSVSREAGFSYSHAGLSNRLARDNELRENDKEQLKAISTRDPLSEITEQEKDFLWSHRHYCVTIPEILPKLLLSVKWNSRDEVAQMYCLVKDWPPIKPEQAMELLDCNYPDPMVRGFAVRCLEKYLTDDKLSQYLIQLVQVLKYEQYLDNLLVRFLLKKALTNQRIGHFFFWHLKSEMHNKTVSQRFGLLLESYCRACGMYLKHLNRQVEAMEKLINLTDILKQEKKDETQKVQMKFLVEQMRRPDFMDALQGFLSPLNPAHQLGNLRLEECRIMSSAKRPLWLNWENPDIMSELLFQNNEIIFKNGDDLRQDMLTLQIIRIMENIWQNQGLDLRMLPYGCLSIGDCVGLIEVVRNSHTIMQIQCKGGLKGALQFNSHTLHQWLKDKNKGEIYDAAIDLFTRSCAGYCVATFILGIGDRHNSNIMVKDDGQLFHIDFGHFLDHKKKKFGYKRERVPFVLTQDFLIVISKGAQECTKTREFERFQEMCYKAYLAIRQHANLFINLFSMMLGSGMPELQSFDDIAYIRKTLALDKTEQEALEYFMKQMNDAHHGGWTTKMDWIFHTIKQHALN
T2 sequence (P27986 whole entry partner): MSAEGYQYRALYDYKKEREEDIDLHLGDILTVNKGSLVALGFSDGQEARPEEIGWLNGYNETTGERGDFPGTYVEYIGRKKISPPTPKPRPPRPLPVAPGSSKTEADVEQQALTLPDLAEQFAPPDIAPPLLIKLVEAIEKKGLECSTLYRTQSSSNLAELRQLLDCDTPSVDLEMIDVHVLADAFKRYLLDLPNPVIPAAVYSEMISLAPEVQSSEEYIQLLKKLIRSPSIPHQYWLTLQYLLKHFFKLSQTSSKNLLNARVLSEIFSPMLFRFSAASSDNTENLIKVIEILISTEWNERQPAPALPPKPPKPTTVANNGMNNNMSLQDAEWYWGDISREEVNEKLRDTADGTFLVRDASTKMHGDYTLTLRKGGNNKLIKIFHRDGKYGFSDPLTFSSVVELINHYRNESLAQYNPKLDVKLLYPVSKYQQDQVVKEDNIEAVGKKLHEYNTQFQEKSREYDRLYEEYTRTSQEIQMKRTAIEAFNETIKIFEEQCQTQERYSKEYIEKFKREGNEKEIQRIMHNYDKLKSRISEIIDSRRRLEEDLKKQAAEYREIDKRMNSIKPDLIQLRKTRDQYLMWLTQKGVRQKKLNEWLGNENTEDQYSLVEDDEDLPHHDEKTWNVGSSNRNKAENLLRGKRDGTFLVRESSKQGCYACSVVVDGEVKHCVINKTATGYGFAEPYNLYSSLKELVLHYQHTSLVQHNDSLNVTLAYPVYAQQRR

| Compound | IC50 [1] | IC50 [2] |
| --- | --- | --- |
| CN(C)C(=O)c1ccc(NC(=O)Nc2ccc(-c3nc(N4CCOCC4)c4ncc(-c5cnn(C)c5)cc4n3)cc2F)c(F)c1 [Example 141, 3-fluoro-4-(3-(2-fluoro-4-(7-(1-methyl-1H-pyrazol-4-yl)-4-morpholino-pyrido[3,2-d]pyrimidin-2-yl)phenyl)ureido)-N,N-dimethyl-benzamide] | 0.05 to 0.2 µM | 0.201 to 10 µM |
| Cc1ncccc1-c1ccc2c(N3CCOCC3)nc(-c3ccc(NC(=O)Nc4ccc(C(=O)N(C)C)cc4)cc3F)nc2c1 [Example 272, 4-(3-(3-fluoro-4-(7-(2-methylpyridin-3-yl)-4-morpholino-quinazolin-2-yl)phenyl)ureido)-N,N-dimethyl-benzamide] | 0.05 to 0.2 µM | < 0.05 µM |
| Cc1noc(C)c1-c1ccc2c(N3CCOCC3)nc(-c3ccc(NC(=O)Nc4ccc(C(=O)N(C)C)cc4)cc3F)nc2c1 [Example 252, 4-(3-(4-(7-(3,5-dimethylisoxazol-4-yl)-4-morpholino-quinazolin-2-yl)-3-fluorophenyl)ureido)-N,N-dimethyl-benzamide] | 0.05 to 0.2 µM | 0.05 to 0.2 µM |
| Cc1ccc(-c2ccc3c(N4CCOCC4)nc(-c4ccc(NC(=O)Nc5ccc(C(=O)N(C)C)c(F)c5)cc4)nc3c2)o1 [Example 266, 2-fluoro-N,N-dimethyl-4-(3-(4-(7-(5-methylfuran-2-yl)-4-morpholino-quinazolin-2-yl)phenyl)ureido)-benzamide] | 0.05 to 0.2 µM | 0.05 to 0.2 µM |
| CC1CN(c2nc(-c3ccc(NC(=O)Nc4ccc(C(=O)N(C)C)cc4)cc3F)nc3cc(-c4cncnc4)ccc23)CCO1 (stereo not shown) [Example 254, 4-(3-(3-fluoro-4-(4-(2-methylmorpholino)-7-(pyrimidin-5-yl)quinazolin-2-yl)phenyl)ureido)-N,N-dimethyl-benzamide] | 0.05 to 0.2 µM | 0.201 to 10 µM |
| CN(C)C(=O)c1ccc(NC(=O)Nc2ccc(-c3nc(N4CCOCC4)c4ccc(C(=O)N5CCC(N(C)C)CC5)cc4n3)cc2)cc1 [Example 287, 4-(3-(4-(7-(4-(dimethylamino)piperidine-1-carbonyl)-4-morpholino-quinazolin-2-yl)phenyl)ureido)-N,N-dimethyl-benzamide] | 0.201 to 10 µM | 0.201 to 10 µM |
| Cc1ccc(-c2cccc3c(N4CCOCC4)nc(-c4ccc(NC(=O)Nc5ccc(C(=O)N(C)C)cc5)cc4)nc23)o1 [Example 71, N,N-dimethyl-4-(3-{4-[8-(5-methyl-furan-2-yl)-4-morpholin-4-yl-quinazolin-2-yl]-phenyl}-ureido)-benzamide] | < 0.05 µM | 0.05 to 0.2 µM |
| CN(C)C(=O)c1ccc(NC(=O)Nc2ccc(-c3nc(N4CCOCC4)c4ccc(-c5cnn(C)c5)cc4n3)c(F)c2)cc1 [Example 249, 4-(3-(3-fluoro-4-(7-(1-methyl-1H-pyrazol-4-yl)-4-morpholino-quinazolin-2-yl)phenyl)ureido)-N,N-dimethyl-benzamide] | < 0.05 µM | 0.05 to 0.2 µM |
| CC(=O)Nc1ccc(NC(=O)Nc2ccc(-c3nc(N4CCOCC4)c4ncc(-c5cccnc5F)cc4n3)cc2)cc1 [Example 293, N-(4-(3-(4-(7-(2-fluoropyridin-3-yl)-4-morpholinopyrido[3,2-d]pyrimidin-2-yl)phenyl)ureido)phenyl) acetamide] | < 0.05 µM | < 0.05 µM |
| CN(C)C(=O)c1ccc(NC(=O)Nc2ccc(-c3nc(N4CCOCC4)c4ncc(-c5cccnc5)cc4n3)c(F)c2)cc1 [Example 261, 4-(3-(3-fluoro-4-(4-morpholino-7-(pyridin-3-yl)pyrido[3,2-d]pyrimidin-2-yl)phenyl)ureido)-N,N-dimethyl-benzamide] | < 0.05 µM | < 0.05 µM |
| CN1CCN(C(=O)c2ccc(NC(=O)Nc3ccc(-c4nc(N5CCOCC5)c5ccc(-c6ccncc6)cc5n4)cc3F)cc2)CC1 [Example 212, 1-(2-fluoro-4-(4-morpholino-7-(pyridin-4-yl)quinazolin-2-yl)phenyl)-3-(4-(4-methylpiperazine-1-carbonyl)phenyl)urea] | 0.05 to 0.2 µM | 0.05 to 0.2 µM |
| CC1CN(c2nc(-c3ccc(NC(=O)Nc4ccc(C(=O)N(C)C)cc4)c(F)c3)nc3cc(-c4cnn(C)c4)cnc23)CC(C)O1 (stereo not shown) [Example 126, 4-(3-(4-(4-(2,6-dimethylmorpholino)-7-(1-methyl-1H-pyrazol-4-yl)pyrido[3,2-d]pyrimidin-2-yl)-2-fluorophenyl)ureido)-N,N-dimethyl-benzamide] | 0.201 to 10 µM | 0.201 to 10 µM |
| CN(C)C(=O)c1ccc(NC(=O)Nc2ccc(-c3nc(N4CCOCC4)c4ccc(-c5ccc(C(=O)N(C)C)o5)cc4n3)cc2)cc1 [Example 229, 5-(2-(4-(3-(4-(dimethylcarbamoyl)phenyl)ureido)phenyl)-4-morpholine-quinazolin-7-yl)-N,N-dimethylfuran-2-carboxamide] | < 0.05 µM | < 0.05 µM |

Second part, the molecule after the results:

| IC50 [1] | IC50 [2] | Compound |
| --- | --- | --- |
| < 0.05 µM | < 0.05 µM | CN(C)C(=O)c1ccc(NC(=O)Nc2ccc(-c3nc(N4CCOCC4)c4ccc(-c5cncc(F)c5)cc4n3)cc2)cc1 [Example 164, 4-(3-(4-(7-(5-fluoropyridin-3-yl)-4-morpholino-quinazolin-2-yl)phenyl)ureido)-N,N-dimethyl-benzamide] |
| < 0.05 µM | < 0.05 µM | CN(C)C(=O)c1ccc(NC(=O)Nc2ccc(-c3nc(N4CCOCC4)c4ncc(-c5cccnc5F)cc4n3)cc2)c(F)c1 [Example 145, 3-fluoro-4-(3-(4-(7-(2-fluoropyridin-3-yl)-4-morpholino-pyrido[3,2-d]pyrimidin-2-yl)phenyl)ureido)-N,N-dimethyl-benzamide] |
| < 0.05 µM | < 0.05 µM | CN(C)CCNC(=O)c1ccc(NC(=O)Nc2ccc(-c3nc(N4CCOCC4)c4ccc(-c5ccco5)cc4n3)cc2)cc1 [Example 235, N-(2-(dimethylamino)ethyl)-4-(3-(4-(7-(furan-2-yl)-4-morpholino-quinazolin-2-yl)phenyl)ureido)-benzamide] |
| < 0.05 µM | 0.05 to 0.2 µM | CN(C)[C@@H]1CCN(C(=O)c2ccc(NC(=O)Nc3ccc(-c4nc(N5CCOCC5)c5ccc(C(C)(C)O)cc5n4)cc3)cc2)C1 [Example 288, (R)-1-(4-(3-(dimethylamino)pyrrolidine-1-carbonyl)phenyl)-3-(4-(7-(2-hydroxypropan-2-yl)-4-morpholino-quinazolin-2-yl)phenyl)urea] |
| < 0.05 µM | < 0.05 µM | COc1ncc(-c2cnc3c(N4CCOCC4)nc(-c4ccc(NC(=O)Nc5ccc(C(=O)N(C)C)cc5)cc4F)nc3c2)cn1 [Example 263, 4-(3-(3-fluoro-4-(7-(2-methoxypyrimidin-5-yl)-4-morpholino-pyrido[3,2-d]pyrimidin-2-yl)phenyl)ureido)-N,N-dimethyl-benzamide] |
| < 0.05 µM | 0.05 to 0.2 µM | COc1ccc2c(N3CCOCC3)nc(-c3ccc(NC(=O)Nc4ccc(C(=O)N(C)C)cc4)c(F)c3)nc2c1 [Example 182, 4-(3-(2-fluoro-4-(7-methoxy-4-morpholino-quinazolin-2-yl)phenyl)ureido)-N,N-dimethyl-benzamide] |
| < 0.05 µM | < 0.05 µM | COc1ccncc1-c1ccc2c(N3CCOCC3)nc(-c3ccc(NC(=O)Nc4ccc(C(=O)N(C)C)cc4)cc3)nc2c1 [Example 169, 4-(3-(4-(7-(4-methoxypyridin-3-yl)-4-morpholino-quinazolin-2-yl)phenyl)ureido)-N,N-dimethyl-benzamide] |

— patent US9115092B2, “Substituted quinazoline and pyrido-pyrimidine derivatives” (Asana Biosciences, LLC, priority 2010, dated 2015)
